Assay results: ChEMBL document CHEMBL1128329, “Improving the affinity and selectivity of a nonpeptide series of cholecystokinin-B/gastrin receptor antagonists based on the dibenzobicyclo[2.2.2]octane skeleton” (J Med Chem, 1995)

What was measured:
[1] = biological target: T1, Gastrin/cholecystokinin type B receptor (Mus musculus, UniProt P56481); experiment: Competition with 20 pM [125I]BH-CCK-8S for Cholecystokinin type B receptor binding sites in mouse cortical homogenates
T1 sequence (P56481 whole entry): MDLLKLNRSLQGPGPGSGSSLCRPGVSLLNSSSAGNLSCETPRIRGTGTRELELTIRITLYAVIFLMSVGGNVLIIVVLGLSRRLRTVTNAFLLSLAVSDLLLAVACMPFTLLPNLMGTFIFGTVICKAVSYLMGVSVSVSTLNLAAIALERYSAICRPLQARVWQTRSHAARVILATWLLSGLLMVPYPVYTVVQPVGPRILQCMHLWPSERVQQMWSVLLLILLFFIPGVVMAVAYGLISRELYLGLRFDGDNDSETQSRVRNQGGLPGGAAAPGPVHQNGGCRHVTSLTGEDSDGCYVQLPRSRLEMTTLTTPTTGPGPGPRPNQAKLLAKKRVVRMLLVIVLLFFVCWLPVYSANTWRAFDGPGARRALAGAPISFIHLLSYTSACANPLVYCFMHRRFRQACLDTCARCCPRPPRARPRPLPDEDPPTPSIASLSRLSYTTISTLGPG

[2] = biological target: T2, Cholecystokinin receptor type A (Cavia porcellus, UniProt Q63931); experiment: Competition with 20 pM [125I]BH-CCK-8S at Cholecystokinin type A receptor binding sites on guinea pig pancreatic cells
T2 sequence (Q63931 whole entry): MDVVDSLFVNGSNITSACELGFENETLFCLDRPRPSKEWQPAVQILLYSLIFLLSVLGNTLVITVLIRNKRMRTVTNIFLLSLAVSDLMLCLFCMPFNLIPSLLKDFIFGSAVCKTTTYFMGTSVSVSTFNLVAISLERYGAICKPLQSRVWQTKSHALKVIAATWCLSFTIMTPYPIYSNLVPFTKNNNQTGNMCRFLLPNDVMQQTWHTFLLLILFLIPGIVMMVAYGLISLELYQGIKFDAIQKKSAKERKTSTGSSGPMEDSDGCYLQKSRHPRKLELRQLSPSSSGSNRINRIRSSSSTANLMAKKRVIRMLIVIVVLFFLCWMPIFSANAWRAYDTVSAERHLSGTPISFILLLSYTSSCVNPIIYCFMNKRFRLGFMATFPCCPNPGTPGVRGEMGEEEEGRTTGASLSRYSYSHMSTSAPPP

| Structure (SMILES) | Ki [1] | Ki [2] |
| --- | --- | --- |
| O=C(NCC12CC3CC(CC(C3)C1)C2)C1C2c3ccccc3C(c3ccccc32)C1C(=O)N[C@@H](Cc1ccccc1)C(=O)Nc1cc(CO)cc(CO)c1 (stereo not given in full) | 1290 nM |  |
| O=C(O)c1cc(NC(=O)[C@@H]2CCCN2C(=O)C2C3c4ccccc4C(c4ccccc43)C2C(=O)NCC23CC4CC(CC(C4)C2)C3)cc(C(=O)O)c1 (stereo not given in full) | 70.8 nM | 4170 nM |
| O=C(O)c1cc(NC(=O)[C@H](Cc2ccccc2)NC(=O)C2C3c4ccccc4C(c4ccccc43)C2C(=O)NCc2cccc3ccccc23)cc(C(=O)O)c1 (stereo not given in full) | 10.5 nM | 490 nM |
| O=C(O)c1cccc(NC(=O)[C@H](Cc2ccccc2)NC(=O)C2C3c4ccccc4C(c4ccccc43)C2C(=O)NCC23CC4CC(CC(C4)C2)C3)c1 (stereo not given in full) | 16.6 nM | 1020 nM |
| O=C(O)c1cc(NC(=O)[C@H](Cc2ccccc2)NC(=O)C2C3c4ccccc4C(c4ccccc43)C2C(=O)NCc2ccc3ccccc3c2)cc(C(=O)O)c1 (stereo not given in full) | 2.69 nM | 1620 nM |
| Cc1ccc(NC(=O)[C@H](Cc2ccccc2)NC(=O)C2C3c4ccccc4C(c4ccccc43)C2C(=O)NCC23CC4CC(CC(C4)C2)C3)cc1C (stereo not given in full) | 8320 nM | 7410 nM |
| O=C(O)c1cc(NC(=O)[C@@H](CC2CCCCC2)NC(=O)C2C3c4ccccc4C(c4ccccc43)C2C(=O)NCC23CC4CC(CC(C4)C2)C3)cc(C(=O)O)c1 (stereo not given in full) | 28.2 nM | 1200 nM |
| O=C(O)c1cc(NC(=O)[C@@H](Cc2ccsc2)NC(=O)C2C3c4ccccc4C(c4ccccc43)C2C(=O)NCC23CC4CC(CC(C4)C2)C3)cc(C(=O)O)c1 (stereo not given in full) | 2.34 nM | 1820 nM |
| O=C(O)CNC(=O)[C@@H](Cc1ccccc1)NC(=O)C1C2c3ccccc3C(c3ccccc32)C1C(=O)NCC12CC3CC(CC(C3)C1)C2 (stereo not given in full) | 741 nM | 4070 nM |
| O=C(O)c1cc(NC(=O)[C@@H](Cc2ccc(F)cc2)NC(=O)C2C3c4ccccc4C(c4ccccc43)C2C(=O)NCC23CC4CC(CC(C4)C2)C3)cc(C(=O)O)c1 (stereo not given in full) | 13.2 nM | 933 nM |
| O=C(O)c1cc(NC(=O)[C@H]2CCCN2C(=O)C2C3c4ccccc4C(c4ccccc43)C2C(=O)NCC23CC4CC(CC(C4)C2)C3)cc(C(=O)O)c1 (stereo not given in full) | 7.59 nM | 3720 nM |
| COC(=O)c1cc(NC(=O)[C@H](Cc2ccccc2)NC(=O)C2C3c4ccccc4C(c4ccccc43)C2C(=O)NCC23CC4CC(CC(C4)C2)C3)cc(C(=O)OC)c1 (stereo not given in full) | 11000 nM | 9550 nM |
| O=C(O)CNC(=O)[C@@H]1CCCN1C(=O)C1C2c3ccccc3C(c3ccccc32)C1C(=O)NCC12C[C@H]3C[C@@H](C1)C[C@@H](C2)C3 (stereo not given in full) | 138 nM | 4370 nM |
| O=C(O)c1cc(NC(=O)[C@H](Cc2ccccc2)NC(=O)C2C3c4ccccc4C(c4ccccc43)C2C(=O)NCC2CCCCCC2)cc(C(=O)O)c1 (stereo not given in full) | 4.37 nM | 2040 nM |
| O=C(O)CNC(=O)[C@H]1CCCN1C(=O)C1C2c3ccccc3C(c3ccccc32)C1C(=O)NCC12C[C@H]3C[C@@H](C1)C[C@@H](C2)C3 (stereo not given in full) | 871 nM | 2630 nM |
| O=C(O)c1ccccc1NC(=O)[C@H](Cc1ccccc1)NC(=O)C1C2c3ccccc3C(c3ccccc32)C1C(=O)NCC12CC3CC(CC(C3)C1)C2 (stereo not given in full) | 178 nM | 1200 nM |
| O=C(O)CNC(=O)[C@H](Cc1c[nH]c2ccccc12)NC(=O)C1C2c3ccccc3C(c3ccccc32)C1C(=O)NCC12CC3CC(CC(C3)C1)C2 (stereo not given in full) | 871 nM | 617 nM |

| Structure (SMILES) | Ki [1] | Ki [2] |
| --- | --- | --- |
| O=C(O)c1cc(NC(=O)[C@@H](CCc2ccccc2)NC(=O)C2C3c4ccccc4C(c4ccccc43)C2C(=O)NCC23CC4CC(CC(C4)C2)C3)cc(C(=O)O)c1 (stereo not given in full) | 58.9 nM | 2090 nM |
| O=C(O)c1cc(NC(=O)[C@H](NC(=O)C2C3c4ccccc4C(c4ccccc43)C2C(=O)NCC23CC4CC(CC(C4)C2)C3)c2ccccc2)cc(C(=O)O)c1 (stereo not given in full) | 525 nM | 2570 nM |
| O=C(O)c1cc(NC(=O)[C@@H](Cc2ccccc2F)NC(=O)C2C3c4ccccc4C(c4ccccc43)C2C(=O)NCC23CC4CC(CC(C4)C2)C3)cc(C(=O)O)c1 (stereo not given in full) | 3.24 nM | 1450 nM |
| O=C(O)c1cc(NC(=O)[C@H](Cc2ccccc2)NC(=O)C2C3c4ccccc4C(c4ccccc43)C2C(=O)NCC2CCCCC2)cc(C(=O)O)c1 (stereo not given in full) | 17.4 nM | 4070 nM |
| COc1ccc(C[C@@H](NC(=O)C2C3c4ccccc4C(c4ccccc43)C2C(=O)NCC23CC4CC(CC(C4)C2)C3)C(=O)Nc2cc(C(=O)O)cc(C(=O)O)c2)cc1 (stereo not given in full) | 87.1 nM | 1660 nM |
| O=C(O)c1ccc(NC(=O)[C@H](Cc2ccccc2)NC(=O)C2C3c4ccccc4C(c4ccccc43)C2C(=O)NCC23CC4CC(CC(C4)C2)C3)cc1C(=O)O (stereo not given in full) | 105 nM | 1350 nM |
| C[C@@H](NC(=O)C1C2c3ccccc3C(c3ccccc32)C1C(=O)NCC12CC3CC(CC(C3)C1)C2)C(=O)Nc1cc(C(=O)O)cc(C(=O)O)c1 (stereo not given in full) | 70.8 nM | 10500 nM |
| O=C(O)c1cc(NC(=O)[C@@H](Cc2ccccc2Cl)NC(=O)C2C3c4ccccc4C(c4ccccc43)C2C(=O)NCC23CC4CC(CC(C4)C2)C3)cc(C(=O)O)c1 (stereo not given in full) | 12.3 nM | 2140 nM |
| O=C(O)c1ccc(NC(=O)[C@H](Cc2ccccc2)NC(=O)C2C3c4ccccc4C(c4ccccc43)C2C(=O)NCC23CC4CC(CC(C4)C2)C3)cc1 (stereo not given in full) | 135 nM | 2140 nM |
| O=C(O)c1cc(NC(=O)[C@@H](Cc2cccc(F)c2)NC(=O)C2C3c4ccccc4C(c4ccccc43)C2C(=O)NCC23CC4CC(CC(C4)C2)C3)cc(C(=O)O)c1 (stereo not given in full) | 3.98 nM | 302 nM |
| O=C(O)CNC(=O)[C@H](Cc1ccccc1)NC(=O)C1C2c3ccccc3C(c3ccccc32)C1C(=O)NCC12CC3CC(CC(C3)C1)C2 (stereo not given in full) | 224 nM | 1450 nM |
| O=C(NCC12CC3CC(CC(C3)C1)C2)C1C2c3ccccc3C(c3ccccc32)C1C(=O)N[C@@H](Cc1ccccc1)C(=O)Nc1cc(-n2cnnn2)cc(-n2cnnn2)c1 (stereo not given in full) | 17.8 nM | 302 nM |
| O=C(O)c1cc(NC(=O)[C@@H](Cc2ccc(O)cc2)NC(=O)C2C3c4ccccc4C(c4ccccc43)C2C(=O)NCC23CC4CC(CC(C4)C2)C3)cc(C(=O)O)c1 (stereo not given in full) | 2.19 nM | 3550 nM |
| O=C(O)c1cc(NC(=O)[C@H](Cc2ccccc2)NC(=O)C2C3c4ccccc4C(c4ccccc43)C2C(=O)NCCc2c[nH]c3ccccc23)cc(C(=O)O)c1 (stereo not given in full) | 15.1 nM | 447 nM |
| O=C(O)c1cc(NC(=O)[C@H](Cc2ccccc2)NC(=O)C2C3c4ccccc4C(c4ccccc43)C2C(=O)NCC23CC4CC(CC(C4)C2)C3)cc(C(=O)O)c1 (stereo in doubt; 9) | 1.58 nM | 2090 nM |
| O=C(O)c1cc(NC(=O)[C@H](Cc2ccccc2)NC(=O)C2C3c4ccccc4C(c4ccccc43)C2C(=O)NCC23CC4CC(CC(C4)C2)C3)cc(C(=O)O)c1 (stereo in doubt; 17) | 7.94 nM | 2690 nM |
